Test [1] addresses T1, human CB1 receptor (Homo sapiens, UniProt P21554).
T1 construct: purchased Perkin Elmer/NEN; host or cells: HEK-293 cells, stably transfected (membranes)
Kind of test: biochemical. The note with it: displacement of [3H]CP55940, hCB1 HEK-293 membranes; read-out: CB1 IC50. In kind it is binding. The method, then:
(§1) In the present invention, binding affinity is represented by the IC50 value, namely the concentration of a test compound that will displace 50% of a radiolabeled agonist from the CB receptors. […] Preferably these ratios will be obtained for human CB1 and CB2 receptors. The selectivity toward CB2, denoted CB2/CB1 affinity, is calculated as the IC50 value obtained by the test compound for the displacement of the CB1 specific radioligand divided by the IC50 value obtained for the displacement of the CB2 specific radioligand, i.e. the IC50 CB1/IC50 CB2.
The CB1 binding assays were performed by testing the ability of the new compounds to displace [^3H]CP55940 from the CB1 receptor on membranes derived from hCB1 stably transfected HEK-293 cells (Perkin Elmer/NEN). Membranes were diluted in the assay buffer (50 mM Tris-HCl, 2.5 mM EDTA, 5 mM MgCl2, 1 mg/ml BSA, pH=7.4) to 500 μg protein/ml. 50 μl of diluted membranes (25 μg) were incubated with [^3H]CP55940 in the presence or absence of the bicyclic test compounds in a total volume of 0.5 ml. Tested compounds were dissolved in DMSO and diluted in the assay buffer to a final concentration of 0.1% solvent. Control samples were added with identical amount of vehicle. Non-specific binding was measured by the addition of 10 μM of WIN 55212-2. Following 1.5 hours incubation at 30° C. reactions were filtered through Whatman 934A/H filters (presoaked with 0.1% Polyethylenimine (PEI)).
(§2) Binding to CB1 is measured by competitive inhibition of [^3H]CP55940 in HEK-293 cells stably transfected with the human CB1 receptor gene. Binding to CB2 is measured by competitive inhibition of [^3H]WIN55212-2 in CHO cells stably transfected with the human CB2 receptor gene.
On the technique in general: Displacement assays read how much labelled ligand stays bound in the presence of the test substance.

Test [2] concerns TNF-α secretion from activated RAW 264.7 macrophages. Nature of the test: Inhibition of TNF-α in LPS activated macrophages (ELISA). It is filed as cell-based, mouse. The note with it: doses up to 20 μM. The text has this: (§3) The technique used to quantify the amount of a given protein in a liquid sample, either tissue culture supernatant or body fluid, is based on Enzyme Linked ImmunoSorbent Assay (ELISA) methodology. Either commercially available or established in house, the assay is based on the capture of the protein of interest by specific antibodies bound to the bottom of an ELISA plate well. Unbound material is washed away, the captured protein is then exposed to a secondary antibody generally labeled with horseradish peroxidase (HRP) or alkaline phosphatase (ALP). Again the unbound material is washed away, the samples are then incubated with the appropriate substrate yielding a calorimetric reaction. The reaction is stopped and reading is performed in a spectrophotometer at the appropriate wavelength. Samples are tested at least in duplicate and the appropriate standard curve, consisting of serial dilutions of the recombinant target protein, is incorporated on each plate. Concentration of the protein in the sample is calculated from the standard curve.
(§4) RAW 264.7 macrophages, a mouse cell line (ATCC # TIB-71), were grown in Dulbecco's modified Eagle's medium (DMEM) with 4 mM L-glutamine adjusted to contain 1.5 g/L sodium bicarbonate, 4.5 g/L glucose, and 10% heat inactivated fetal bovine serum. Cells were grown in tissue culture flasks and seeded at appropriate density into 24 wells tissue culture plates. 0.5×10^6 Raw cells in one milliliter were stimulated with 2 μg/ml Lipopolysaccharide E. coli 055:B5 (DIFCO Laboratories). The mouse macrophages were pre-treated for one hour with controls or 10 μM of bicyclic CB2 ligands and later on activated with LPS. Dexamethasone was used as a positive control at 50 nM. Supernatant was collected 4 hours (for PGE2) and 24 hours (for IL-1β and TNF-α) after activation, and the levels of the inflammatory agent under study were determined by ELISA, as previously described. Inhibition was calculated versus vehicle treated cells.
The activation of the macrophages is performed as previously described. The levels of TNF-α are measured in an ELISA assay as previously described. Inhibition is calculated versus vehicle treated cells.
A general note: An ELISA detects its analyte on a solid surface through an enzyme-linked reagent.

Test [3] relates to PGE2 secretion from activated RAW 264.7 macrophages. Nature of the test: Inhibition of PGE2 in LPS activated macrophages (ELISA). It is filed as cell-based, mouse. The note with it: Mus musculus, RAW264.7; 4 hours after activation, doses 1 μM to 20 μM.
Excerpt: as §3, §4
The activation of the macrophages is performed as previously described. The levels of PGE2 are measured in an ELISA assay as previously described. Inhibition is calculated versus vehicle treated cells. […] Results are depicted in FIG. 2B.

The subject of test [4] is ICR male mice. Nature of the test: Tail flick model for acute peripheral pain, i.p. It is filed as in vivo, mouse. The note with it: 10 mg/kg i.p., 330 minutes (five and a half hours). Here is the method:
ICR male mice (20-30 g average body weight, Harlan, Israel) were injected i.p. at the volume dose of 5 ml/kg. Each treatment group contained at least 6 animals. Morphine HCl was used as positive control at the final dose of 5 mg/kg. Its vehicle, saline, was also included as control. The test compounds were dissolved in CREMOPHOR EL®:ethanol and diluted 1:20 in saline prior to injection, this second type of vehicle was also included as negative control. The final dose injected varied from 0.1 to 10 mg/kg. At predetermined time points after treatment injection, the animals were placed in the tail flick system (Socrel, model DS 20). Animals were gently held while their tails were located above the photoelectric cell. The tails were then illuminated (21V) at 2 cm from the distal tip and the latency time, measured in seconds, was recorded in duplicates. At the end of the study, the animals were euthanized by i.p. injection of 100 mg/kg sodium pentobarbitone.
Two parameters were used to analyze the results, the latency time and the % of animals showing analgesia. […] The results in both cases are expressed as mean±SE. The differences between the latency times or the % of animals showing analgesia among various treatment groups was analyzed by analysis of variance (ANOVA) followed by post-hoc Tukey's test (for latency) or Fisher's exact test (for % animals). A value of p<0.05 is considered to be statistically significant.

Test [5] has as its system Male Sprague Dawley rats. Nature of the test: Inflammatory pain: carrageenan paw edema in rats, thermal and mechanical stimuli. In kind it is in vivo, rat. The note with it: 10 mg/kg i.p., three hours. Here is the method: Male Sprague Dawley rats (200 g average body weight, Harlan, Israel) are transiently sedated by placement on dry ice for the duration of the injections. […] Before induction of inflammatory pain and three hours after injection, the animals reactions to pain stimuli were tested in two systems. The first stimulus was thermal and assessed by the Plantar Test according to Hargreaves, using Ugo Basile Model 7370. The scale was set to an intensity of 50 arbitrary units. The latency time till the animal lift a paw as a reaction to the thermal stimulus was recorded for both the inflamed and non-inflamed hind paws. The second stimulus was mechanical (tactile) and assessed using a Dynamic Plantar Sesthesiomether (Ugo Basile Model 73400-002).
The results are measured as the differences between the two hind paws at time 0 and 3 hours both as ALT, for the latency time in the thermal part of the study, and as ΔForce, for the mechanical part of the study.
(In general: In the carrageenan paw model, swelling and tenderness develop within hours.)

Test [6] concerns the target T2, human CB2 receptor (Homo sapiens, UniProt P34972). Nature of the test: biochemical. Also noted: purchased Perkin Elmer/NEN; host or cells: CHO cells, stably transfected (membranes). It is filed as binding. The note with it: for CB2/CB1 affinity ratio: IC50 CB1/IC50 CB2; for IC50: displacement of [3H]WIN 55212-2, hCB2 CHO membranes. Here is the method:
as §1
The affinities of the novel bicyclic analogs to the CB2 receptor were determined by their ability to displace [^3H]WIN 55212-2 from the receptor in membranes derived from hCB2 stably transfected CHO cells (Perkin Elmer/NEN). Membranes were diluted in assay buffer (10 mM HEPES, 1 mM MgCl2, 1 mM EDTA, 0.3 mg/ml BSA, pH=7.4) to 500 μg protein/ml. 50 μl of diluted membranes (25 μg) were incubated with 0.8 nM of [^3H]WIN 55212-2 in the presence or absence of several concentrations of the bicyclic test compounds in a total volume of 1 ml. Tested compounds were dissolved and diluted as previously described for the hCB1 assay. Non-specific binding was measured by the addition of 10 μM CP 55940. Following 40 minutes incubation at 30° C. reactions were filtered as previously described. Filters for all binding assays were counted in a β-counter and log of analog concentration versus % of binding was plotted. IC50 values were extrapolated from this plot.
as §2

Test [7] deals with T2, human CB2 receptor. Nature of the test: Adenylylcyclase assay: forskolin-activated cAMP in CB2 transfected HEK-293 cells. In kind it is cell-based. The note with it: CB2 receptor transfected HEK-293, 1 μM forskolin. The method, then:
Cannabinoids and derivatives bind to G-protein-coupled CB1 and CB2 receptors and exert their activity via the inhibition of adenylylcyclase activity. An adenylylcyclase assay forms a basis for the functional analysis of the compounds by determining their capacity to inhibit or promote forskolin-activated cAMP production. The assay is carried out according to Chin et al. (Chin, C. N. et al., J. Neurochem. 70: 366-73, 1998). Briefly, HEK-293 human kidney cells (ATCC#CRL-1573) stably transfected with either the human CB1 or CB2 receptor (cDNA) were grown in DMEM supplemented with 10% fetal calf serum, 1% Penicillin-Streptomycin and 2 mM L-glutamine. Cells were seeded in 24 wells plate at 5×10^4 cells/well and incubated for 48 hours. Medium was then removed and the adherent cells were washed with PBS. Two hundred μl of serum free medium supplemented with 0.2 mM Ro 20-1724, 0.25% BSA, and 20 mM HEPES was then added to each well. The cells were then activated with 1 μM forskolin in presence of the bicyclic test compounds in concentrations ranging from 10 pM up to 1 μM. The activated cells were then incubated at 37° C. for 20 minutes and the reaction terminated with 1.2 M HCl to a final concentration of 0.1 M. Cells were lyzed by freeze and thaw and the lysate was neutralized with 2 M HEPES, pH 7.5. cAMP was measured in 50 μl aliquots using the [^3H]-cAMP assay system (Amersham).
This experiment was first performed on CB2 receptor transfected cells.

T2 sequence (P34972 whole entry): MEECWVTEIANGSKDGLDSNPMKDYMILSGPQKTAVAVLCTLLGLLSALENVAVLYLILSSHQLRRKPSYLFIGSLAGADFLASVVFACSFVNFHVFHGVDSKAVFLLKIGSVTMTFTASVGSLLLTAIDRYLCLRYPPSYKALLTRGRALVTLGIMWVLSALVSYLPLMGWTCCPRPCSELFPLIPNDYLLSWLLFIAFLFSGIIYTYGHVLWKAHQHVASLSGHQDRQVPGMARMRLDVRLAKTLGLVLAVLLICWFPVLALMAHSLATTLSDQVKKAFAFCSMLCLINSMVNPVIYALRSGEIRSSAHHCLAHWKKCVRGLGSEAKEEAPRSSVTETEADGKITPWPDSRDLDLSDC
T1 sequence (P21554 whole entry): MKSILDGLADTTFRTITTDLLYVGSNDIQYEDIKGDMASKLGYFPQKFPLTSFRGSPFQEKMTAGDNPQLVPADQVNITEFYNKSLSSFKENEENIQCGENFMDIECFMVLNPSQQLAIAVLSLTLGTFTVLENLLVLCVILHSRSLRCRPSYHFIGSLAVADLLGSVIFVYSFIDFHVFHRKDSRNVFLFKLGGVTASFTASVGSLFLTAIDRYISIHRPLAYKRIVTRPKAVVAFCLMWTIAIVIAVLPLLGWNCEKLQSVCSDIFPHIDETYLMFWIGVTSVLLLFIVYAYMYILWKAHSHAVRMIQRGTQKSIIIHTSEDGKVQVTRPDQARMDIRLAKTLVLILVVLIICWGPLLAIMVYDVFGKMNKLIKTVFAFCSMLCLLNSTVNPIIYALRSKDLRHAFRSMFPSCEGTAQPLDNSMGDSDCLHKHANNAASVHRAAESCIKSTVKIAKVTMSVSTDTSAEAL

As for `CC(C)(CCCCBr)c1cc(O)c(C2CC(=O)C3CC2C3(C)C)c(O)c1` (single isomer, unassigned; (-)) [Compound N, (−)-4-[4-(5-Bromo-1,1-Dimethyl-pentyl)-2,6-dihydroxy-phenyl]-6,6-dimethyl-bicyclo[3.1.1]heptan-2-one], the IC50 – broadly, the concentration that inhibits the measured activity by half – in test [1] is 0.05 µM. Moreover, the “effect on TNF-α secretion” value in test [2] is “none of them did significantly affect TNF-α secretion”. In addition, 7 µM corresponded to half-maximal inhibition in test [3] (IC50). Moreover, in test [4], the “% animals showing increased analgesia” value is listed as “about 60%” and the latency time amounted to 5.4 s. In addition, in test [5], the “ΔForce (tactile stimulus)” value was determined as 6 g and the “ΔLT (thermal stimulus)” value amounted to 2 s. Besides, in test [6], the CB2/CB1 affinity ratio worked out at 139 and the IC50 amounted to 0.00036 µM.

Take `CC(C)(CCCCC#N)c1cc(O)c([C@H]2CC(=O)[C@H]3C[C@@H]2C3(C)C)c(O)c1` [Compound P, (−)-4-[4-(1,1-Dimethyl-pentyl-5-nitrile)-2,6-dihydroxy-phenyl]-6,6-dimethyl-bicyclo[3.1.1]heptan-2-one]: the IC50 in test [1] turned out to be 0.227 µM; in test [3], 18 µM; in test [6], 0.00155 µM. The “effect on TNF-α secretion” value in test [2] is recorded as “none of them did significantly affect TNF-α secretion”. For the same molecule, the CB2/CB1 affinity ratio in test [6] is 146.

For `CCCCCCC(C)(C)c1cc(OC(=O)CCC(=O)O)c([C@H]2CC(=O)[C@H]3C[C@@H]2C3(C)C)c(OC(=O)CCC(=O)O)c1` [Compound S, 4-{4-[1,1-Dimethyl-heptyl]-2,6-bisuccinate-phenyl}-6,6-dimethyl-bicyclo[3.1.1]heptan-2-one], the IC50 in test [1] turned out to be 0.117 µM; in test [7] (read-out: IC50 inhibition of cAMP level), 0.00016 µM; in test [6] it was 0.00152 µM. The inhibition (commonly the drop in the measured response relative to a control, in per cent) at 1 µM in test [7] (HEK293, read-out: % inhibition at 1 μM) came out at 58%. Further, the CB2/CB1 affinity ratio in test [6] is reported as 77.

(Values after patent US20050020544A1, “Bicyclic CB2 cannabinoid receptor ligands” (priority 2002, published 2005).)
